Measurements published in ChEMBL document CHEMBL1681695, “Chroman and tetrahydroquinoline ureas as potent TRPV1 antagonists” (Bioorg Med Chem Lett, 2011).

What was measured:
[1] = target: Transient receptor potential cation channel subfamily V member 1 (Homo sapiens, UniProt Q8NER1); test: Antagonist activity at human TRPV1 assessed as inhibition of calcium influx; assay type: functional
[2] = target: CYP3A4 (Homo sapiens, UniProt P08684); test: Inhibition of CYP3A4 at 10 uM; assay type: ADME
[3] = Ratio of drug uptake in brain to plasma in rat; assay type: ADME
[4] = test system: Rattus norvegicus; test: Analgesic activity in rat assessed as inhibition of capsaicin-induced acute pain at 30 umol/kg, po; assay type: functional
[5] = test system: Rattus norvegicus; test: Antihyperalgesic activity in po dosed rat assessed as inhibition of carrageenan-induced hyperalgesia; assay type: functional
[6] = test system: Rattus norvegicus; test: Antihyperalgesic activity in po dosed rat assessed as inhibition of CFA-induced hyperalgesia; assay type: functional
[7] = test system: Rattus norvegicus; test: Analgesic activity in rat assessed as inhibition of MIA-induced osteoarthritis pain at 30 umol/kg, po; assay type: functional

Sequence of CYP3A4 (P08684 whole entry): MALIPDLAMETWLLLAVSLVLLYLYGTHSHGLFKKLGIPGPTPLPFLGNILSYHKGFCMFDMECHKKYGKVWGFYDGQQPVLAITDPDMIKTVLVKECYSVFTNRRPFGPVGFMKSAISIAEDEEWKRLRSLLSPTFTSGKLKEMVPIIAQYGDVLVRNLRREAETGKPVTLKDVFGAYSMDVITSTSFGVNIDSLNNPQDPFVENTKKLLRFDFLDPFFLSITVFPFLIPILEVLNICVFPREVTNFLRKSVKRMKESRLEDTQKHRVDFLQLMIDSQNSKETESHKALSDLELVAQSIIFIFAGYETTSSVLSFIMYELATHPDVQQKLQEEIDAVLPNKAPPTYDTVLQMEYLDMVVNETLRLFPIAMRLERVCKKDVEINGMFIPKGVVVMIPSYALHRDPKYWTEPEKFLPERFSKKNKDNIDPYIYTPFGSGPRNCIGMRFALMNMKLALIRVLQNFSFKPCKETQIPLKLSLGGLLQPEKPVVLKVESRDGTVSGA
Sequence of Transient receptor potential cation channel subfamily V member 1 (Q8NER1 whole entry): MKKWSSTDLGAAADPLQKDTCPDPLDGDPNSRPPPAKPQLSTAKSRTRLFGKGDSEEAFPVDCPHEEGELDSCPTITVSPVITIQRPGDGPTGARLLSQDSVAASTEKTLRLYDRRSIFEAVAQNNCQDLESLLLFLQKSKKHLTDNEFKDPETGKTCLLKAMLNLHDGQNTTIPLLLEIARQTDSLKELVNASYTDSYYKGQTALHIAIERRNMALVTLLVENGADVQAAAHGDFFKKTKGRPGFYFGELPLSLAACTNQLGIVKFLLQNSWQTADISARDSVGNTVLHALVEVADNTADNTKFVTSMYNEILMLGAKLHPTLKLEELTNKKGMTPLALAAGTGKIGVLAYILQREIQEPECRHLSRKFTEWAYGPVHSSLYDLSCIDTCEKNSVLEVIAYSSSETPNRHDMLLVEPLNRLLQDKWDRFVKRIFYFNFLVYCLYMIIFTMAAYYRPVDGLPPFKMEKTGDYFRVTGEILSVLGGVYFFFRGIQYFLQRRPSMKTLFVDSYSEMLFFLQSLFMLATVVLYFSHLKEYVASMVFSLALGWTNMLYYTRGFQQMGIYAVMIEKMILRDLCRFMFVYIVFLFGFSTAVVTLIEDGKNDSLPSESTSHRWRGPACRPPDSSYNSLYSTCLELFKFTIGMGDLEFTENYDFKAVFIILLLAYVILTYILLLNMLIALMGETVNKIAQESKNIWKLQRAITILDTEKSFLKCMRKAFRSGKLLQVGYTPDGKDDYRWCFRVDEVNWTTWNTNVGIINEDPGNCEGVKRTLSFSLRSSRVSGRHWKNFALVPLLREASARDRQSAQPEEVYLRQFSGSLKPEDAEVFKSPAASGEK

| SMILES | IC50 [1] | further results |
| --- | --- | --- |
| O=C(Nc1cccc2[nH]ncc12)N[C@@H]1CCOc2cc(C(F)(F)F)ccc21 | 4 nM | – |
| O=C(Nc1cccc2[nH]ncc12)N[C@H]1CCOc2cc(C(F)(F)F)ccc21 | 43 nM | – |
| CN1CCC(NC(=O)Nc2cccc3[nH]ncc23)c2ccc(C(F)(F)F)cc21 (stereo unspecified) | – | inhibition at 10 µM [2]: 47% |
| CC(C)(C)c1ccc2c(c1)OCCC2NC(=O)Nc1cccc2[nH]ncc12 (stereo unspecified) | 43 nM | – |
| COc1ccc2c(c1)C(NC(=O)Nc1cccc3[nH]ncc13)CCN2CC1CCCCC1 (stereo unspecified) | 196 nM | inhibition at 10 µM [2]: 93% |
| CC(C)CCN1CCC(NC(=O)Nc2cccc3[nH]ncc23)c2cccc(Cl)c21 (stereo unspecified) | 11 nM | – |
| CN1CCC(NC(=O)Nc2cccc3[nH]ncc23)c2ccccc21 (stereo unspecified) | 215 nM | inhibition at 10 µM [2]: 65% |
| COc1ccc2c(c1)C(NC(=O)Nc1cccc3[nH]ncc13)CCN2C (stereo unspecified) | 1380 nM | inhibition at 10 µM [2]: 59% |
| CC(C)(C)c1cccc2c1OCCC2NC(=O)Nc1cccc2[nH]ncc12 (stereo unspecified) | 5 nM | Kp [3]: 0.42; inhibition in vivo at 30 µmol/kg [4]: 89%; ED50 [5]: 10 µmol/kg; ED50 [6]: 15 µmol/kg; inhibition in vivo at 30 µmol/kg [7]: 56% |
| O=C(Nc1cccc2[nH]ncc12)NC1CCOc2c1cccc2N1CCOCC1 (stereo unspecified) | 110 nM | – |
| O=C(Nc1cccc2[nH]ncc12)NC1CCOc2ccccc21 (stereo unspecified) | 234 nM | – |
| CC(C)(C)c1cccc2c1OCC[C@@H]2NC(=O)Nc1cccc2[nH]ncc12 | 19 nM | – |

Further compounds by falling IC50 [1], results first:

| IC50 [1] | SMILES | further results |
| --- | --- | --- |
| 1200 nM | CC(C)(C)c1ccc2c(c1)OCC[C@@H]2NC(=O)Nc1cccc2[nH]ncc12 | – |
| 933 nM | Cc1ccc2c(c1)C(NC(=O)Nc1cccc3[nH]ncc13)CCO2 (stereo unspecified) | – |
| 853 nM | CN1CCC(NC(=O)Nc2cccc3[nH]ncc23)c2cc(C(C)(C)C)ccc21 (stereo unspecified) | – |
| 718 nM | O=C(Nc1cccc2[nH]ncc12)NC1CCOc2ccc(F)cc21 (stereo unspecified) | – |
| 160 nM | COc1ccc2c(c1)C(NC(=O)Nc1cccc3[nH]ncc13)CCN2Cc1ccccc1 (stereo unspecified) | inhibition at 10 µM [2]: 97% |
| 121 nM | CC(C)(C)c1ccc2c(c1)C(NC(=O)Nc1cccc3[nH]ncc13)CCN2Cc1ccccc1 (stereo unspecified) | – |
| 115 nM | CN1CCC(NC(=O)Nc2cccc3[nH]ncc23)c2ccc(C(C)(C)C)cc21 (stereo unspecified) | – |
| 70 nM | O=C(Nc1cccc2[nH]ncc12)NC1CCN(Cc2ccccc2)c2ccccc21 (stereo unspecified) | inhibition at 10 µM [2]: 94% |
| 66 nM | O=C(Nc1cccc2[nH]ncc12)NC1CCN(Cc2ccccc2)c2ccc(F)cc21 (stereo unspecified) | – |
| 34 nM | CN1CCC(NC(=O)Nc2cccc3[nH]ncc23)c2ccc(F)cc21 (stereo unspecified) | inhibition at 10 µM [2]: 66% |
| 31 nM | CC(C)(C)c1ccc2c(c1)OCC[C@H]2NC(=O)Nc1cccc2[nH]ncc12 | – |
| 16 nM | O=C(Nc1cccc2[nH]ncc12)NC1CCOc2c1cccc2N1CCCCC1 (stereo unspecified) | – |
| 15 nM | O=C(Nc1cccc2[nH]ncc12)NC1CCOc2c(C3CCCCC3)cccc21 (stereo unspecified) | – |
| 8 nM | O=C(Nc1cccc2[nH]ncc12)NC1CCOc2cc(OC(F)(F)F)ccc21 (stereo unspecified) | – |
| 6 nM | CN1CCC(NC(=O)Nc2cccc3[nH]ncc23)c2cccc(C(C)(C)C)c21 (stereo unspecified) | – |
| 5 nM | O=C(Nc1cccc2[nH]ncc12)NC1CCOc2c1cccc2C(F)(F)F (stereo unspecified) | – |
| 5 nM | O=C(Nc1cccc2[nH]ncc12)NC1CCOc2c(OC(F)(F)F)cccc21 (stereo unspecified) | – |
| 3 nM | CC(C)(C)c1cccc2c1OCC[C@H]2NC(=O)Nc1cccc2[nH]ncc12 | – |
